We go through 5 compounds from patent publication US10294202B2, “Pyrrolidinones as herbicides” (FMC Corporation, priority 2013, dated 2019).

The subject of one experiment is nutsedge, yellow. Description: Test E preemergence herbicide test. Further details: key: 0 = no effect, 100 = complete control. In kind it is in vivo, Cyperus esculentus. The essentials:
(§1)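 Planted in silt loam; preemergence spray, non-phytotoxic solvent/surfactant formulation; greenhouse 21 d; visual score 0–100 vs controls.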

For another experiment, the system named is crabgrass, Brazil. The experiment is described as follows: Test E preemergence herbicide test. In kind it is in vivo, Digitaria horizontalis. Further details: key: 0 = no effect, 100 = complete control. The essentials:
as §1

Another experiment relates to foxtail, giant. The experiment is described as follows: Test E preemergence herbicide test. The experiment is classed as in vivo, Setaria faberii. Further details: key: 0 = no effect, 100 = complete control. The text has this:
Seeds of plant species selected from corn (Zea mays), soybean (Glycine max), velvetleaf (Abutilon theophrasti), lambsquarters (Chenopodium album), wild poinsettia (Euphorbia heterophylla), pigweed, palmer (palmer pigweed, Amaranthus palmeri), waterhemp (common waterhemp, Amaranthus rudis), surinam grass (Brachiaria decumbens), crabgrass, large (large crabgrass, Digitaria sanguinalis), crabgrass, Brazil (Brazilian crabgrass, Digitaria horizontalis), panicum, fall (fall panicum, Panicum dichotomiflorum), foxtail, giant (giant foxtail, Setaria faberii), foxtail, green (green foxtail, Setaria viridis), goosegrass (Eleusine indica), johnsongrass (Sorghum halepense), ragweed (common ragweed, Ambrosia elatior), barnyardgrass (Echinochloa crus-galli), sandbur (southern sandbur, Cenchrus echinatus), arrowleaf […] rhombifolia), ryegrass, Italian (Italian ryegrass, Lolium multiflorum), dayflower, VA (Virginia dayflower, Commelina virginica), field bindweed (Convolvulus arvensis), morningglory (Ipomoea coccinea), nightshade (eastern black nightshade, Solanum ptycanthum), kochia (Kochia scoparia), nutsedge, yellow (yellow nutsedge, Cyperus esculentus), cocklebur (common cocklebur, Xanthium strumarium), smartweed (ladysthumb smartweed, Polygonum Persicaria) and beggarticks (hairy beggarticks, Bidens pilosa), were planted into a silt loam soil and treated preemergence with test chemicals formulated in a non-phytotoxic solvent mixture which included a surfactant. Treated plants and controls were maintained in a greenhouse for 21 days, after which time all species were compared to controls and visually evaluated. Plant response ratings, summarized in Table E, are based on a scale of 0 to 100 where 0 is no effect and 100 is complete control. A dash (-) response means no test result.

The test system of a further experiment is goosegrass. The experiment is described as follows: Test C pre-/postemergence herbicide test. In kind it is in vivo, Eleusine indica. The essentials:
(§2)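 Test compounds, formulated in a surfactant-containing non-phytotoxic solvent blend, are applied to seeded loam/sand soil (preemergence) and to young plants at the 1- to 4-leaf stage in peat-based medium (postemergence). Plants stay 13 to 15 days under greenhouse conditions, then are scored visually relative to controls, 0 = no effect, 100 = complete control.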

The next experiment deals with foxtail, green. The experiment is described as follows: Test C pre-/postemergence herbicide test. The experiment is classed as in vivo, Setaria viridis. From the text:
Seeds of plant species selected from blackgrass (Alopecurus myosuroides), ryegrass, Italian (Italian ryegrass, Lolium multiflorum), wheat (winter wheat, Triticum aestivum), galium (catchweed bedstraw, Galium aparine), corn (Zea mays), crabgrass, large (large crabgrass, Digitaria sanguinalis), foxtail, giant (giant foxtail, Setaria faberii), johnsongrass (Sorghum halepense), lambsquarters (Chenopodium album), morningglory (Ipomoea coccinea), nutsedge, yellow (yellow nutsedge, Cyperus esculentus), pigweed (Amaranthus retroflexus), ragweed (common ragweed, Ambrosia elatior), soybean (Glycine max), barnyardgrass (Echinochloa crus-galli), oilseed rape (Brassica napus), waterhemp (common waterhemp, Amaranthus rudis), kochia (Kochia scoparia), oat, wild (wild oat, Avena fatua), surinam grass (Brachiaria decumbens), foxtail, green (green foxtail, Setaria viridis), goosegrass (Eleusine indica), bromegrass, downy (downy bromegrass, Bromus tectorum), nightshade (eastern black nightshade, Solanum ptycanthum), cocklebur (common cocklebur, Xanthium strumarium), cupgrass, woolly (woolly cupgrass, Eriochloa villosa), bermudagrass (Cynodon dactylon), sunflower, (common oilseed sunflower, Helianthus annuus), Russian thistle (Salsola kali) and velvetleaf (Abutilon theophrasti) were planted into a blend of loam soil and sand and treated preemergence with test chemicals formulated in a non-phytotoxic solvent mixture which included a surfactant. At the same time, plants selected from these crop and weed species and also barley (winter barley, Hordeum vulgare), […]), chickweed (common chickweed, Stellaria media), deadnettle (henbit deadnettle, Lamium amplexicaule), and canarygrass (littleseed canarygrass, Phalaris minor) were planted in pots containing Redi-Earth® planting medium (Scotts Company, 14111 Scottslawn Road, Marysville, Ohio 43041) comprising spaghnum peat moss, vermiculite, wetting agent and starter nutrients and treated with postemergence applications of test chemicals formulated in the same manner. Plants ranged in height from 2 to 18 cm (1- to 4-leaf stage) for postemergence treatments. Treated plants and controls were maintained in a greenhouse for 13 to 15 days, after which time all species were compared to controls and visually evaluated. Plant response ratings, summarized in Table C, are based on a scale of 0 to 100 where 0 is no effect and 100 is complete control. A dash (-) response means no test result.

Another experiment has as its system velvetleaf. The experiment is described as follows: Test E preemergence herbicide test. In kind it is in vivo, Abutilon theophrasti. Also noted: key: 0 = no effect, 100 = complete control. The essentials: as §1
A further experiment concerns sunflower. The experiment is described as follows: Test C pre-/postemergence herbicide test. In kind it is in vivo, Helianthus annuus. Particulars: Preemergence. The essentials: as §2
Setting [1] is: Preemergence, 62 g ai/ha, scale 0 to 100.
Setting [2] is: Preemergence, 125 g ai/ha, scale 0 to 100 (0 no effect, 100 complete control).
The mark [3] stands for this setting: Preemergence, 31 g ai/ha, scale 0 to 100 (0 no effect, 100 complete control).
Setting [4] is: Preemergence, 250 g ai/ha, scale 0 to 100 (0 no effect, 100 complete control).
Setting [5] is: 125 g ai/ha, scale 0 to 100 (0 no effect, 100 complete control).
The mark [6] stands for this setting: Postemergence, 16 g ai/ha, scale 0 to 100 (0 no effect, 100 complete control).
Where [7] appears, read: Postemergence, 31 g ai/ha, scale 0 (no effect) to 100 (complete control).
Where [8] appears, read: Postemergence, 62 g ai/ha, scale 0 to 100 (0 no effect, 100 complete control).
The mark [9] stands for this setting: Postemergence, 125 g ai/ha, scale 0 to 100 (0 no effect, 100 complete control).
Setting [10] is: Preemergence, 16 g ai/ha, scale 0 to 100.
The mark [11] stands for this setting: Postemergence, 250 g ai/ha, scale 0 to 100 (0 no effect, 100 complete control).
[12] abbreviates: Preemergence, 31 g ai/ha, scale 0 to 100, 0 is no effect and 100 is complete control.

On to `O=C1NCC(c2ccc(Cl)c(Cl)c2)C1C(=O)Nc1ccccc1F` (racemic) [Compound 14], for which the “Plant response rating, Nutsedge, Yellow” value was determined as 0 in the experiment on nutsedge, yellow (16 g ai/ha); 0 in the experiment with nutsedge, yellow (31 g ai/ha); 0 in the experiment with nutsedge, yellow (62 g ai/ha); 0 in the experiment with nutsedge, yellow (125 g ai/ha); 0 with nutsedge, yellow (250 g ai/ha). The “Plant response rating, Crabgrass, Brazil” value was determined as 0 in the experiment with crabgrass, Brazil (16 g ai/ha); 65 in the experiment with crabgrass, Brazil (31 g ai/ha); 80 with crabgrass, Brazil (62 g ai/ha); 95 in the experiment on crabgrass, Brazil (125 g ai/ha); 95 in the experiment on crabgrass, Brazil (250 g ai/ha). For the same compound, the “Plant response rating, Foxtail, Giant” value stood at 0 in the experiment on foxtail, giant (16 g ai/ha); 0 in the experiment with foxtail, giant (31 g ai/ha); 0 in the experiment on foxtail, giant (62 g ai/ha); 10 in the experiment with foxtail, giant (125 g ai/ha); 90 in the experiment with foxtail, giant (250 g ai/ha). In addition, the “Plant response rating, Goosegrass” value in the experiment with goosegrass (setting [1]) and with goosegrass (setting [2]) was 0 each time. The “Goosegrass plant response rating” value in the experiment on goosegrass (setting [3]) turned out to be 0. For the same compound, the “Plant response rating, Foxtail, Green” value was determined as 90 in the experiment on foxtail, green (setting [1]); 90 in the experiment on foxtail, green (setting [2]); 95 in the experiment with foxtail, green (setting [4]). In addition, in the experiment on foxtail, green (setting [3]), the “Foxtail, Green plant response rating” value is given as 25. For the same compound, the “Plant response rating, Velvetleaf” value in the experiment on velvetleaf (16 g ai/ha), in the experiment on velvetleaf (31 g ai/ha), in the experiment with velvetleaf (62 g ai/ha), in the experiment on velvetleaf (125 g ai/ha) and with velvetleaf (250 g ai/ha) was 0 throughout. The “Plant response rating, Sunflower” value amounted to 0 in the experiment on sunflower (62 g ai/ha, scale 0 to 100) and 0 with sunflower (setting [5]).
For the compound `O=C1NCC(c2cc(F)c(F)c(F)c2)C1C(=O)Nc1cccc(F)c1F` (stereo not shown) [Compound 48], the “Plant response rating, Goosegrass” value in the experiment on goosegrass (setting [6]) is 10; in the experiment with goosegrass (setting [7]), 10; in the experiment on goosegrass (setting [8]), 10; with goosegrass (setting [9]), 10; in the experiment on goosegrass (setting [1]), 10; in the experiment on goosegrass (setting [2]), 15. Also, the “Plant response rating, Goosegrass” value in the experiment on goosegrass (setting [10]) came out at 0. The “Goosegrass plant response rating” value with goosegrass (setting [3]) is recorded as 0. For the same compound, the “Plant response rating, Foxtail, Green” value with foxtail, green (setting [6]) is recorded as 0; with foxtail, green (setting [7]), 0; in the experiment on foxtail, green (setting [8]) it was 0; in the experiment with foxtail, green (setting [9]), 65; with foxtail, green (setting [1]), 90; in the experiment with foxtail, green (setting [2]), 90. Further, in the experiment with foxtail, green (setting [10]), the “Plant response rating, Foxtail, Green” value was 70. Moreover, the “Foxtail, Green plant response rating” value with foxtail, green (setting [3]) was 80. For the same compound, the “Plant response rating, Sunflower” value was 0 in the experiment on sunflower (62 g ai/ha, scale 0 to 100); 0 in the experiment with sunflower (setting [5]); 0 in the experiment with sunflower (16 g ai/ha, scale 0 to 100).
Regarding `O=C1NCC(c2ccc(Cl)c(F)c2)C1C(=O)Nc1cccc(F)c1F` (stereo not shown) [Compound 52], the “Plant response rating, Goosegrass” value is 0 in the experiment on goosegrass (setting [7]); 0 with goosegrass (setting [8]); 20 with goosegrass (setting [9]); 20 in the experiment with goosegrass (setting [11]); 20 in the experiment on goosegrass (setting [1]); 60 in the experiment on goosegrass (setting [2]). In addition, the “Goosegrass plant response rating” value in the experiment on goosegrass (setting [3]) is 10. Also, the “Plant response rating, Foxtail, Green” value stood at 0 in the experiment with foxtail, green (setting [7]); 10 in the experiment on foxtail, green (setting [8]); 30 with foxtail, green (setting [9]); 80 in the experiment on foxtail, green (setting [11]); 90 with foxtail, green (setting [1]); 90 in the experiment on foxtail, green (setting [2]). Besides, the “Plant response rating, Foxtail, Green” value in the experiment on foxtail, green (setting [4]) is on record as 90. Besides, in the experiment with foxtail, green (setting [3]), the “Foxtail, Green plant response rating” value amounted to 80. Also, the “Plant response rating, Sunflower” value with sunflower (62 g ai/ha, scale 0 to 100) was 0; in the experiment on sunflower (setting [5]) it was 0.
In the case of `O=C1NCC(c2ccc(F)c(Cl)c2)C1C(=O)Nc1ccccc1F` (stereo not shown) [Compound 60], the “Plant response rating, Goosegrass” value in the experiment on goosegrass (setting [7]), in the experiment on goosegrass (setting [8]), in the experiment with goosegrass (setting [9]), in the experiment on goosegrass (setting [1]) and in the experiment with goosegrass (setting [2]) was 0 in each case. Also, in the experiment on goosegrass (setting [3]), the “Goosegrass plant response rating” value came to 0. For the same compound, the “Plant response rating, Foxtail, Green” value was 20 with foxtail, green (setting [7]); 35 with foxtail, green (setting [8]); 45 in the experiment on foxtail, green (setting [9]); 90 with foxtail, green (setting [1]); 90 with foxtail, green (setting [2]). In addition, the “Foxtail, Green plant response rating” value in the experiment with foxtail, green (setting [3]) is given as 90. The “Plant response rating, Sunflower” value was 0 with sunflower (62 g ai/ha, scale 0 to 100) and 0 with sunflower (setting [5]).
As for `O=C1NCC(c2cccc(OC(F)(F)F)c2)C1C(=O)Nc1ccccc1F` (stereo not shown) [Compound 69], in the experiment with goosegrass (setting [12]), the “Goosegrass plant response rating” value was determined as 20. Also, the “Plant response rating, Goosegrass” value in the experiment on goosegrass (setting [1]) and in the experiment on goosegrass (setting [2]) was 40 each time. Also, the “Plant response rating (scale of 0 to 100), Goosegrass” value in the experiment with goosegrass (Preemergence, 250 g ai/ha) came out at 75. The “Foxtail, Green plant response rating” value in the experiment with foxtail, green (setting [12]) was found to be 90. In addition, the “Plant response rating, Foxtail, Green” value was 90 with foxtail, green (setting [1]) and 95 in the experiment with foxtail, green (setting [2]). For the same compound, the “Plant response rating (scale of 0 to 100), Foxtail, Green” value with foxtail, green (Preemergence, 250 g ai/ha) is on record as 95. Further, the “Sunflower plant response rating” value with sunflower (31 g ai/ha, scale 0 to 100, 0 is no effect and 100 is complete control) is given as 10. Moreover, the “Plant response rating, Sunflower” value with sunflower (62 g ai/ha, scale 0 to 100) stood at 10; in the experiment on sunflower (setting [5]), 10. Also, in the experiment with sunflower (250 g ai/ha), the “Plant response rating (scale of 0 to 100), Sunflower” value came to 15.
